Legend:
PIK3CA (human) = PIK3CA (human) (UniProt P42336); test: Assessment of PIK3CA Kinase Activity
PIK3CB (Human) = PIK3CB (Human) (UniProt P42338); test: Assessment of PIK3CB Kinase Activity
PIK3CD (Human) = PIK3CD (Human) (UniProt O00329); test: Assessment of PIK3CD Kinase Activity
Sequence of PIK3CD (Human) (O00329 whole entry, looked up): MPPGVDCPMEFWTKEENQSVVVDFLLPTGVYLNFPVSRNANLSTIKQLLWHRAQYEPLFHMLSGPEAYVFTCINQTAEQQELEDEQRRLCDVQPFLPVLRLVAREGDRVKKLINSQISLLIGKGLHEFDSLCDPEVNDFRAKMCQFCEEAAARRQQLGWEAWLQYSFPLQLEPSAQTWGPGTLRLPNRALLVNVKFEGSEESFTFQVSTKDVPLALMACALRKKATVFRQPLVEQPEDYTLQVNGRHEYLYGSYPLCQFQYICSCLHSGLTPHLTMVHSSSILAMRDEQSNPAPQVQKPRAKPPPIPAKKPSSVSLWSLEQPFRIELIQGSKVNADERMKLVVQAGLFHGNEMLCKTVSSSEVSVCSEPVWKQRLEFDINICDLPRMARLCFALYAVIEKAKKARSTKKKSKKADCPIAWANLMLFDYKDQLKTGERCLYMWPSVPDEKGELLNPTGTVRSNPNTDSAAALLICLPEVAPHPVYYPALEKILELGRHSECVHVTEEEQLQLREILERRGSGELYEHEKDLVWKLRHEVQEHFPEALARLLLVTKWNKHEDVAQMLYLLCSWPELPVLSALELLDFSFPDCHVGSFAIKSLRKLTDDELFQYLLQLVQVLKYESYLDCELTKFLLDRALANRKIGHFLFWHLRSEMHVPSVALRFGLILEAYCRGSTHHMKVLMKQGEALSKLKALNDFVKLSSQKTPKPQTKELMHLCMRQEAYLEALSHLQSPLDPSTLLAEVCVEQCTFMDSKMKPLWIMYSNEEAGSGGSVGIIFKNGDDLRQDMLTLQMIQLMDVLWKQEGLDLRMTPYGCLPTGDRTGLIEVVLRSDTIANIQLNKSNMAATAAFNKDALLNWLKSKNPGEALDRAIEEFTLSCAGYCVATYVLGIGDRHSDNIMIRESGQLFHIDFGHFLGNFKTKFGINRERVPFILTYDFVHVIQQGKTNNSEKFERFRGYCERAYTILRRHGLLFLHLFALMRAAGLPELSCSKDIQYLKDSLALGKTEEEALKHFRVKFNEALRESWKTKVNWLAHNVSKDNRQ

Sequence of PIK3CA (human) (P42336 whole entry, looked up): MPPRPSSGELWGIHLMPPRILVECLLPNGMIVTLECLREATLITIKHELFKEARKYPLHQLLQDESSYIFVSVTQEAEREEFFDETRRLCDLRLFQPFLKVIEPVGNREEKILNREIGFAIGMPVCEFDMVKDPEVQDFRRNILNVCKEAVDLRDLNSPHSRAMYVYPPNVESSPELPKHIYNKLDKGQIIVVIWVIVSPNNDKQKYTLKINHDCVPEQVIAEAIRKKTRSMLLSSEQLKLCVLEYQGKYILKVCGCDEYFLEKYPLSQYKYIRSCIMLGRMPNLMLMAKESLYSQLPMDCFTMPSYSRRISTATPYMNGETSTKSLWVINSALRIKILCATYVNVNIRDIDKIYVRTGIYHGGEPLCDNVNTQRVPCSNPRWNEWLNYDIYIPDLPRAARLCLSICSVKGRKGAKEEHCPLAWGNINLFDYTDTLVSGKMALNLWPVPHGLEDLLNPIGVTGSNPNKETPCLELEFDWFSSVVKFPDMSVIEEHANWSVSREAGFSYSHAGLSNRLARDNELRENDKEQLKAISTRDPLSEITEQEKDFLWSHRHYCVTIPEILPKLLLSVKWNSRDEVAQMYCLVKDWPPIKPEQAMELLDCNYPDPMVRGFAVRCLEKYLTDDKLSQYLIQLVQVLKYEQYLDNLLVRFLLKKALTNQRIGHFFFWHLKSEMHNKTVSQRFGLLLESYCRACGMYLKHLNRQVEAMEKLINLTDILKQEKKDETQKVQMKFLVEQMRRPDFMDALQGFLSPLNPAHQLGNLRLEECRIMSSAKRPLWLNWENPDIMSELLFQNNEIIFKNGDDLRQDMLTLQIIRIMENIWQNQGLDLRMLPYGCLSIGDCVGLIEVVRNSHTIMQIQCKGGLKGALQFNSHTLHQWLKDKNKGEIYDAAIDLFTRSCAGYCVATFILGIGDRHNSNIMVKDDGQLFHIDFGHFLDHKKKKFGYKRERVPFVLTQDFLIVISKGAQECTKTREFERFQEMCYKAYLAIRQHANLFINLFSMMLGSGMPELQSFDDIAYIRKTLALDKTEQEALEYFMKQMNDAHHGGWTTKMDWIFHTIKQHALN
Sequence of PIK3CB (Human) (P42338 whole entry, looked up): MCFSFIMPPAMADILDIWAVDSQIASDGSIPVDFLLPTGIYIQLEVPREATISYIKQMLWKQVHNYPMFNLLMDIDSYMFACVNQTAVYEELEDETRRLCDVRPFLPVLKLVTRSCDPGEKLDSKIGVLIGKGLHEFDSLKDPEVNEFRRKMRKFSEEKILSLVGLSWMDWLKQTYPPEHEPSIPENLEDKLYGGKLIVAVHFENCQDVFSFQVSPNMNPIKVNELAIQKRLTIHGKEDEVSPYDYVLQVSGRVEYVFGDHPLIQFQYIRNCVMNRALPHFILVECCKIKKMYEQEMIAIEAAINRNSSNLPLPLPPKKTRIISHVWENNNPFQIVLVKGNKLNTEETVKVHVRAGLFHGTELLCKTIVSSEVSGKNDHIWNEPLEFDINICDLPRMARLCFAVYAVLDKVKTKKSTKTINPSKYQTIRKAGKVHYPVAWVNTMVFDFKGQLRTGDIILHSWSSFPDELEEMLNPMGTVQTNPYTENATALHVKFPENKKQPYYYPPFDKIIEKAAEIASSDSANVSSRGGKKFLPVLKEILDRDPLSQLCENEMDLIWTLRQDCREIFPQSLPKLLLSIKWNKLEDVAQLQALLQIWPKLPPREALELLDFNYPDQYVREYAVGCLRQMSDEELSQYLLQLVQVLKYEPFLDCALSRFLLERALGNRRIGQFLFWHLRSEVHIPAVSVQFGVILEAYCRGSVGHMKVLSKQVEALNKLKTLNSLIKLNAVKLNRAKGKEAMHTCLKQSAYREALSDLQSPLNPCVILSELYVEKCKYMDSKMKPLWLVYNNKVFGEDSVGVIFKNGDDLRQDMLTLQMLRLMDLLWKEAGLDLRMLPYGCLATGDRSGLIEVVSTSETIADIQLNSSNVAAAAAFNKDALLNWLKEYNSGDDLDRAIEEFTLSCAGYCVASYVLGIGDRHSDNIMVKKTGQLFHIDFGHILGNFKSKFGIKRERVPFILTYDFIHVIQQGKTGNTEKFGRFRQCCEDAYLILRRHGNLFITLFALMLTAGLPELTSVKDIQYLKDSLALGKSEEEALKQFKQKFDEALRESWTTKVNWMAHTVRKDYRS

| IC50 (PIK3CA (human)) [nM] | IC50 (PIK3CB (Human)) [nM] | IC50 (PIK3CD (Human)) [nM] | SMILES |
| --- | --- | --- | --- |
| 100 to 1000 | 100 to 1000 | < 100 | FC(F)c1nc2ccccc2n1-c1nc(Nc2ccccc2)nc(N2CCOCC2)n1 |
| < 100 | – | < 100 | COc1cccc2c1nc(C(F)F)n2-c1nc(Nc2cnc(N(C)CCN(C)C)nc2)nc(N2CCOCC2)n1 |
| < 100 | 100 to 1000 | < 100 | Cn1cc(Nc2nc(N3CCOCC3)nc(-n3c(C(F)F)nc4ccccc43)n2)cn1 |
| < 100 | 100 to 1000 | < 100 | FC(F)c1nc2ccccc2n1-c1nc(Nc2cncnc2)nc(N2CCOCC2)n1 |
| < 100 | 100 to 1000 | < 100 | COc1cccc2c1nc(C(F)F)n2-c1nc(Nc2ccc(N(C)C)nc2)nc(N2CCOCC2)n1 |
| < 100 | < 100 | < 100 | COc1cccc2c1nc(C(F)F)n2-c1nc(N2CCOCC2)nc(N(C)c2cccnc2)n1 |
| 100 to 1000 | – | 100 to 1000 | FC(F)c1nc2ccccc2n1-c1nc(Nc2cnc3ccccc3c2)nc(N2CCOCC2)n1 |
| < 100 | – | < 100 | FC(F)c1nc2ccccc2n1-c1nc(Nc2ccccn2)nc(N2CCOCC2)n1 |
| < 100 | 100 to 1000 | < 100 | CNc1ccc(Nc2nc(N3CCOCC3)nc(-n3c(C(F)F)nc4c(OC)cccc43)n2)cn1 |
| < 100 | 100 to 1000 | < 100 | COc1ccc(Nc2nc(N3CCOCC3)nc(-n3c(C(F)F)nc4c(OC)cccc43)n2)nn1 |
| < 100 | 100 to 1000 | < 100 | FC(F)c1nc2ccccc2n1-c1nc(Nc2cccnn2)nc(N2CCOCC2)n1 |
| < 100 | 100 to 1000 | < 100 | COc1cccc2c1nc(C(F)F)n2-c1nc(Nc2ccc(N)nc2)nc(N2CCOCC2)n1 |
| 100 to 1000 | – | – | FC(F)c1nc2ccccc2n1-c1nc(NCc2ccncc2)nc(N2CCOCC2)n1 |
| 100 to 1000 | < 100 | < 100 | FC(F)c1nc2ccccc2n1-c1nc(NCc2ccccc2)nc(N2CCOCC2)n1 |
| < 100 | < 100 | < 100 | FC(F)c1nc2ccccc2n1-c1nc(Nc2cccnc2)nc(N2CCOCC2)n1 |
| < 100 | 100 to 1000 | < 100 | COc1cccc2c1nc(C(F)F)n2-c1nc(Nc2cccnc2)nc(N2CCOCC2)n1 |
| < 100 | 100 to 1000 | < 100 | COc1cccc2c1nc(C(F)F)n2-c1nc(Nc2ccc(Cl)nc2)nc(N2CCOCC2)n1 |

| IC50 (PIK3CA (human)) [nM] | IC50 (PIK3CB (Human)) [nM] | IC50 (PIK3CD (Human)) [nM] | SMILES |
| --- | --- | --- | --- |
| < 100 | 100 to 1000 | < 100 | FC(F)c1nc2ccccc2n1-c1nc(Nc2ccncc2)nc(N2CCOCC2)n1 |
| – | – | 100 to 1000 | CSc1nc2ccccc2n1-c1nc(Nc2cccnc2)nc(N2CCOCC2)n1 |
| < 100 | – | < 100 | COc1cc(N)cc2c1nc(C(F)F)n2-c1nc(-c2cn[nH]c2)nc(N2CCOCC2)n1 |
| < 100 | – | < 100 | COc1cccc2c1nc(C(F)F)n2-c1nc(N2CCOCC2)nc(-n2cccn2)n1 |
| 100 to 1000 | – | 100 to 1000 | FC(F)c1nc2ccccc2n1-c1nc(-c2cccnc2)cc(N2CCOCC2)n1 |
| < 100 | – | < 100 | FC(F)c1nc2ccccc2n1-c1nc(Nc2ccncn2)nc(N2CCOCC2)n1 |
| < 100 | < 100 | < 100 | FC(F)c1nc2ccccc2n1-c1nc(NCc2ccccn2)nc(N2CCOCC2)n1 |
| < 100 | – | 100 to 1000 | COc1cccc2c1nc(C(F)F)n2-c1nc(-c2cncnc2)cc(N2CCOCC2)n1 |
| < 100 | – | < 100 | COc1cccc2c1nc(C(F)F)n2-c1nc(-c2ccc(N)nc2)nc(N2CCOCC2)n1 |
| – | 100 to 1000 | < 100 | CN(Cc1ccccc1)c1nc(N2CCOCC2)nc(-n2c(C(F)F)nc3ccccc32)n1 |
| > 10000 | > 10000 | – | FC(F)c1nc2ccccc2n1-c1nc(Oc2ccccc2)nc(N2CCOCC2)n1 |
| < 100 | – | < 100 | COc1cc(N)cc2c1nc(C(F)F)n2-c1nc(N2CCOCC2)nc(-n2cccn2)n1 |
| < 100 | – | < 100 | COc1cccc2c1nc(C(F)F)n2-c1nc(Nc2cnc(Cl)nc2)nc(N2CCOCC2)n1 |
| 100 to 1000 | – | 100 to 1000 | FC(F)c1nc2ccccc2n1-c1nc(-c2cncnc2)cc(N2CCOCC2)n1 |
| < 100 | – | < 100 | CN(c1cncnc1)c1nc(N2CCOCC2)nc(-n2c(C(F)F)nc3ccccc32)n1 |
| < 100 | 100 to 1000 | < 100 | COc1cc(Nc2nc(N3CCOCC3)nc(-n3c(C(F)F)nc4c(OC)cccc43)n2)ncn1 |
| < 100 | – | < 100 | COc1cc(N)cc2c1nc(C(F)F)n2-c1nc(-c2ccn(C)n2)nc(N2CCOCC2)n1 |

Continued, compound first:

| SMILES | IC50 (PIK3CA (human)) [nM] | IC50 (PIK3CB (Human)) [nM] | IC50 (PIK3CD (Human)) [nM] |
| --- | --- | --- | --- |
| CN(c1ccccc1)c1nc(N2CCOCC2)nc(-n2c(C(F)F)nc3ccccc32)n1 | 100 to 1000 | 100 to 1000 | 100 to 1000 |
| COc1cccc2c1nc(C(F)F)n2-c1nc(-c2cccnc2)cc(N2CCOCC2)n1 | < 100 | – | < 100 |
| COc1cccc2c1nc(C(F)F)n2-c1nc(Nc2ccc(F)nc2)nc(N2CCOCC2)n1 | < 100 | 100 to 1000 | < 100 |
| CS(=O)(=O)c1nc2ccccc2n1-c1nc(Nc2cccnc2)nc(N2CCOCC2)n1 | 100 to 1000 | 100 to 1000 | < 100 |
| COc1ncc(-c2cc(N3CCOCC3)nc(-n3c(C(F)F)nc4c(OC)cccc43)n2)cn1 | < 100 | – | 100 to 1000 |
| COc1cccc2c1nc(C(F)F)n2-c1nc(N2CCOCC2)c2ncn(-c3cncnc3)c2n1 | < 100 | – | < 100 |
| FC(F)c1nc2ccccc2n1-c1nc(Nc2cnccn2)nc(N2CCOCC2)n1 | < 100 | – | < 100 |
| COc1cccc2c1nc(C(F)F)n2-c1nc(Nc2cncnc2)nc(N2CCOCC2)n1 | < 100 | 100 to 1000 | < 100 |
| COc1ncc(Nc2nc(N3CCOCC3)nc(-n3c(C(F)F)nc4c(OC)cccc43)n2)cn1 | < 100 | 100 to 1000 | < 100 |
| COc1ccc(Nc2nc(N3CCOCC3)nc(-n3c(C(F)F)nc4c(OC)cccc43)n2)cn1 | < 100 | < 100 | < 100 |
| FC(F)c1nc2ccccc2n1-c1nc(Nc2ncccn2)nc(N2CCOCC2)n1 | 100 to 1000 | – | – |
| COc1cccc2c1nc(C(F)F)n2-c1nc(Nc2ccncn2)nc(N2CCOCC2)n1 | < 100 | 100 to 1000 | < 100 |
| COc1ccncc1Nc1nc(N2CCOCC2)nc(-n2c(C(F)F)nc3c(OC)cccc32)n1 | < 100 | 100 to 1000 | < 100 |
| COc1cccc2c1nc(C(F)F)n2-c1nc(N2CCOCC2)nc(N(C)c2cncnc2)n1 | < 100 | – | < 100 |
| COc1ccncc1Nc1nc(N2CCOCC2)nc(-n2c(C(F)F)nc3ccccc32)n1 | < 100 | 100 to 1000 | < 100 |
| COc1cccc2c1nc(C(F)F)n2-c1nc(Nc2cnc(N(C)CCCN(C)C)nc2)nc(N2CCOCC2)n1 | < 100 | – | < 100 |
| FC(F)c1nc2ccccc2n1-c1nc(Oc2cccnc2)nc(N2CCOCC2)n1 | 100 to 1000 | – | – |
| FC(F)c1nc2ccccc2n1-c1nc(Sc2ccccc2)nc(N2CCOCC2)n1 | > 10000 | > 10000 | – |
| FC(F)c1nc2ccccc2n1-c1nc(-c2cccnc2)nc(N2CCOCC2)n1 | < 100 | 100 to 1000 | < 100 |
| COc1cc(N)cc2c1nc(C(F)F)n2-c1nc(-c2cccnc2)cc(N2CCOCC2)n1 | < 100 | – | < 100 |
| FC(F)c1nc2ccccc2n1-c1nc(NCc2cccnc2)nc(N2CCOCC2)n1 | 100 to 1000 | 100 to 1000 | < 100 |
| COc1cccc2c1nc(C(F)F)n2-c1nc(-c2cccnc2)nc(N2CCOCC2)n1 | < 100 | – | < 100 |
| COc1cccc2c1nc(C(F)F)n2-c1nc(Nc2cccnn2)nc(N2CCOCC2)n1 | < 100 | 100 to 1000 | < 100 |

— the Kinase Knowledgebase extract (Sharma et al. 2016)
